# Data from US20230279379A1, “METHODS AND MICROFLUIDIC DEVICE FOR PRODUCING EXTRACELLULAR VESICLES” (THE BOARD OF TRUSTEES OF THE UNIVERSITY OF ILLINOIS, priority 2022, published 2023).
# Experiments:
# F-actin in MSCs = experiment: dSTORM super-resolution imaging and DBSCAN clustering of F-actin; format: cell-based; conditions: CK869 treatment for 2 hours
# Procedure: Sample Preparation for Imaging of F-Actin in Cells on Hydrogels. To prepare samples for F-actin imaging, glass bottom dishes (No 0., 35 mm; MatTek) were silanized, and a thin layer of PEG-DA hydrogel with varied elasticity was formed as described above. After cell seeding on hydrogels and culturing cells in the presence of DMSO or CK869, cells were permeabilized with 0.0015% saponin (Sigma) in a cytoskeleton buffer (10 mM MES, pH 6.0, 150 mM NaCl, 5 mM EGTA, 5 mM glucose, and 5 mM MgCl2) for 4 minutes at room temperature. The samples were then washed with the cytoskeleton buffer 3 times and fixed with 4% paraformaldehyde in the cytoskeleton buffer for 20 minutes at room temperature. […]
# Super-Resolution Imaging of F-actin. […] 50,000 images were recorded for each cell in each condition; after rejecting overtly dense/bleached images approx. 30,000 images were analyzed in each cell/condition for localization detection in post-processing using ThunderSTORM (ImageJ), with the following settings in brief: wavelet filtering (B-spline order 3, scale 2); integrated Gaussian fitting (radius: 3 pixels, initial sigma: 1.6 pixels); local maximum with 8-neighborhood; camera pixel size 160 nm. […]
# Nanoscale Clustering Analysis of F-actin. […] The percentage of F-actin localizations that belong to each cluster group per cell was then quantified and used for statistical analysis.
# Primary human MSCs = experiment: EV secretion per cell from MSCs on hydrogel substrates, nanoparticle tracking analysis; format: cell-based; conditions: 5 μM CK869; hydrogels
# Procedure: Cell Seeding on Hydrogels. Hydrogel discs were placed in ultra-low binding polystyrene well plates (Corning) to ensure cells attach to hydrogels and not the plate surface. Hydrogels were washed with Hank's buffered salt solution (HBSS, Thermo Fisher Scientific) for at least 3 days before seeding cells. Cells were seeded at a low density (25 cells/mm^2). After seeding, hydrogels were washed thoroughly to remove unattached cells. Drug treatments of 3 μM MnCl2 (Thermo Fisher Scientific), 200 nM EMD 121974 sold under the tradename Cilengitide® (Cayman) and 5 μM CK869 (Cayman) were applied during and after cell adhesion to substrates. To evaluate the number of live cells seeded on substrates, cells were detached by incubating with a natural enzyme mixture with proteolytic and collagenolytic enzyme activity sold under the tradename ACCUTASE® Cell Detachment Solution (Innovative Cell Technologies, Inc.) for 10 minute at 37° C. Cells were then washed by centrifugation and directly added to HBSS containing calcein AM (1:2000; Biotium), ethidium bromide (1:2000; Thermo Fisher Scientific), and a predefined number of allophycocyanin (APC) beads (BD). After incubation at room temperature (RT) for 10 minutes, the samples were analyzed for live and dead cell number by flow cytometry.
# Particle Size and Number Characterization. Particle size and number were obtained using Nanoparticle Tracking Analysis 3.2 (NTA) via NanoSight NS300 (Malvern) using a 405 nm laser. Samples were introduced by syringe pump at a rate 100 μL/min. Three thirty-second videos were acquired using camera level 14 followed by detection threshold 7. Camera focus, shutter, blur, minimum track length, minimum expected particle size and maximum jump length were set automatically by the software. Samples were diluted as needed to maintain particles per video from 100-2000. To ensure specificity, all samples were tested as compared to appropriate blank conditions.
# To test the effect of substrate mechanics on EV secretion from MSCs, hydrogel substrates were engineered which were composed of alginate polymer conjugated with the cell adhesion peptide Arg-Gly-Asp (RGD) that binds primarily to αvβ3 and α5β1 integrins. Alginate-RGD hydrogels can be formed either covalently through adipic acid dihydrazide or physically through divalent cations, resulting in elastic or stress-relaxing hydrogels, respectively. For both types of hydrogels, elastic modulus (Young's modulus, E) of ˜3 kPa ‘soft’ and E ˜20 kPa ‘stiff’ were considered values that represent a physiologically relevant range of substrate elasticity for MSC mechanosensing, while E is ˜0.1 GPa for conventional plastic substrates. Primary human bone marrow MSCs were allowed to adhere to substrates for 24 hours followed by washout and collection of the serum-free conditioned medium from MSCs after 24 hours. After centrifugation of the medium at 10,000 g to remove cell, apoptotic, and larger particle fractions, particles remaining in the medium were analyzed by nanoparticle tracking analysis and normalized to the number of live adhered cells counted by flow cytometry (see Methods). MSCs were seeded at low density (˜25 cells/mm^2) to avoid potential effects from cell-cell interactions. […] Thus, focus was placed on the EVs remaining in the supernatant after the 10,000 g centrifugation. For these EVs, the particle size distribution remained similar across different substrates with median diameter ˜120 nm (FIG. 1B). […] Moreover, EVs from different substrates expressed similar levels of late endosomal markers CD63 and CD9. Importantly, levels of ribosomal RNA (rRNA) in particle preparations were similar across hydrogels or plastic substrates, and rRNA as a percentage of total RNA was lower than that found in untreated MSCs or particles derived from H2O2-treated apoptotic MSCs, ruling out apoptosis as a potential factor of increased EV secretion on the soft hydrogel. […]
smiles,measurement,setting,value
COc1ccc(N2C(=O)CSC2c2cccc(Br)c2)c(OC)c1 (centres unmarked) [CK869],distribution of F-actin clusters,F-actin in MSCs,did not alter the distribution of different F-actin clusters on both substrates
same,EV secretion compared to DMSO,Primary human MSCs,significantly increased EV secretion
